Reference: ChEMBL document CHEMBL1142548, “Time-dependent intracellular trafficking of FITC-conjugated epigallocatechin-3-O-gallate in L-929 cells” (Bioorg Med Chem, 2008)
pIC50: −log10 of the molar value.

Test system: L1210
Assay: Cytotoxicity against mouse L1210 cells after 24 hrs by WST8 assay
Assay type: functional, cell-based
Conditions: L1210, 24 h

O=C(O[C@@H]1Cc2c(O)cc(O)cc2O[C@@H]1c1cc(O)c(O)c(O)c1)c1cc(O)c(O)c(OC(=S)Nc2ccc3c(c2)C(=O)OC32c3ccc(O)cc3Oc3cc(O)ccc32)c1
pIC50: ≤ 3.49

O=C1OC2(c3ccc(O)cc3Oc3cc(O)ccc32)c2ccc(N=C=S)cc21
pIC50: 3.15

O=C(O[C@@H]1Cc2c(O)cc(O)cc2O[C@@H]1c1cc(O)c(O)c(O)c1)c1cc(O)c(O)c(O)c1 [EPIGALOCATECHIN GALLATE]
pIC50: 3.16
